Data reported in patent US8383662B2, “Bicyclic heteroaryl compounds” (National Chiao Tung University, priority 2006, dated 2013).

Key:
VEGF receptor 3 = target: T1, VEGF receptor 3 (Homo sapiens, UniProt P35916); assay: KIRA-ELISA assay (VEGFR3 phosphotyrosine after VEGF-C stimulation); assay type: cell-based; conditions: NCI-H928, H928 cells stimulated by recombinant VEGF-C, read-out: inhibition percentage
T1 construct: lyse the cells and solubilize the VEGFR3; endogenous in cells; host or cells: H928 cells
Description: This assay was performed in two microtiter plates. The first plate was used to culture an adherent cell line expressing the VEGF receptor 3 and to stimulate the receptor with a test compound. The second plate was used to capture the solubilized membrane receptor, which was then probed for phosphotyrosine content with phosphotyrosine-specific antibody.
Specifically, H928 cells (2×10^5) in 100 μl medium were added to each well in a flat-bottom 24-well culture plate and cultured overnight at 37° C. in 5% CO2. After the supernatants were removed, the cells were serum-starved for 24 hours. A medium containing a test compound was added into each well and the cell culture was incubated for 30 minutes before it was stimulated by recombinant VEGF-C for 15 minutes. After the supernatants were removed, 100 μl of a lysis buffer were added into each well to lyse the cells and solubilize the VEGFR3. […] The absorbance at 450 nm and the absorbance at a reference wavelength of 650 nm (A450/650) were measured using an ELISA reader.
The inhibition efficacy of each test compound is expressed as an inhibition percentage calculated according to the following formula: 1−[(C−A)/(B−A)]. In this formula, A is the basal amount of phosphotyrosine detected in a blank control, B is the amount of phosphotyrosine detected with VEGF-C only, and C is the amount of phosphotyrosine detected with a test compound and VEGF-C.

4T1^LUC+ cells [1] = assay: In vivo assay on inhibiting spontaneous metastasis; design: species or system BALB/c mice; conditions: 50 mg/kg i.p. once daily; for luminescent signal intensity (metastatic tumor burden): end of the fourth week after compound treatment (sixth week after implantation), FIG. 2
Description: To investigate the effect of test compounds on distant spontaneous metastasis generated by the tumor cells, 4T1^LUC+ cells obtained by the method described in Example 188 were implanted into the right inguinal mammary fat pads of 6-week old BALB/c mice (1×10^5 cells in 100 μL PBS/mouse). After 14 days of tumor cell implantation, a single dose of 50 mg/kg body weight of a test compound or vehicle was administered intraperitoneally once daily. Compounds 2, 56, and 91 were used in this assay. Sorafenib (Nexavar®) and sunitinib (Sutent®) were also used as reference compounds.
A total of 36 mice, six for each of the six groups (i.e., 5 groups treated with test compounds and 1 vehicle group), were imaged once weekly for a period of 6 weeks after tumor cell implantation via bioluminescence imaging.
In vivo bioluminescence imaging was conducted on a cryogenically cooled IVIS™ system (Xenogen Corp., Alameda, Calif.) coupled to a data-acquisition PC running Living Image version 3.1 software (Xenogen Corp.). Before imaging, animals were anesthetized in a plastic chamber filled with 2% isofluorane/air mixture and 150 mg/mL of luciferin (potassium salt, Xenogen Corp.) and normal saline was injected (i.p.) into each mouse at a dose of 150 mg/kg body weight. This dose and route of administration has been previously shown to be optimal for studies in rodents when images were acquired between 10 and 20 minutes post-luciferin administration (Contag C H et al. 1997 Photochem Photobiol.; 66:523-531). During image acquisition, isofluorane anesthesia was maintained using a nose cone delivery system and animal body temperature was regulated using a digitally thermostated bed integrated within the IVIS™ system (Xenogen Corp., Alameda, Calif.). A gray scale body surface image was collected in the chamber under dim illumination, followed by acquisition and overlay of the pseudocolor image representing the spatial distribution of detected photon counts emerging from active luciferase within the animal. An integration time of 1 minute was used for luminescent image acquisition.
The average of the in vivo bioluminescence intensities measured on the 14th day post tumor cell implantation but before treatment with test compounds severed as a baseline, corresponding to the metastatic tumor burden of the vehicle group, as shown in FIG. 2.

4T1^LUC+ cells [2] = assay: Effects on tumor recurrence and survival rate; assay type: in vivo, BALB/c mice; conditions: 50 mg/kg i.p. once daily; for overall survival life span: compared with vehicle group, FIG. 4; for luminescent signal intensity after tumor resection (tumor recurrence): sustain treatment vs stop treatment, FIG. 3
Description: 4T1^LUC+ cells obtained by the method described in Example 188 were implanted into the right inguinal mammary fat pads of 6 to 8-week old female BALB/c mice (1×10^5 cells in 100 μL PBS/mouse). After 14 days of tumor cell implantation, a single dose of 50 mg/kg body weight of a test compound or vehicle (PBS) was administered intraperitoneally once daily for three weeks. Compounds 2, 56, and 91 were tested in this assay. Sorafenib (Nexavar®) and sunitinib (Sutent®) were also used as reference compounds.
At the end of three-week treatment, the orthotopically grown tumors were surgically removed from the six groups of mice (i.e., 5 groups each treated with a test compound and 1 vehicle group). Then each of the six groups (i.e., 5 groups each treated with a test compound and 1 vehicle group) were divided into two subgroups, one with no further drug treatment (denoted as “stop treatment” in FIG. 3) and the other with continued drug treatment for 35 days (denoted as the “sustain treatment” in FIG. 3).
Bioluminescent data were collected in a manner similar to that described in Example 189 above at the end of day 35 after tumor resection.

[3] = system: 4T1^LUC+ cells (murine 4T1 breast cancer); assay: In vivo assay on tumor growth inhibition; design: species or system BALB/c mice
Description: Compounds were tested for their efficacy in inhibiting tumor growth on murine tumor xenografts.
Murine 4T1 breast cancer cells (purchased from the American Type Culture Collection) were cultured to sub confluence in RPMI medium supplemented with 10% fetal bovine serum (GIBCO Invitrogen Corp.) at 37° C., 90% humidity and 5% CO2. The 4T1^LUC+ cells were established by the stable transfection of the firefly luciferase gene (pGL3-control, Promega Corporation) to 4T1 cells using LipofectAMINE PLUS Reagent (Life Technologies, Inc., Grand Island, N.Y.) for quantitative assessment of tumor burden in visceral organs. pcDNA3 vector (Invitrogen Co., Carlsbad, Calif.) was cotransfected for the selection by G418 (Sigma). The resulting 4T1^LUC+ colonies were isolated and cultured independently and the best expressing lines were identified based on the level of bioluminescent activity in the presence of luciferin in living cells. Highly bioluminescent clone was selected for further studies. […]
The length (i.e., the biggest diameter) and width (i.e., the smallest diameter) of the tumor was measured every 3.5 days by using a Vernier caliper. The tumor volume was then calculated as follows: volume=A×B^2×0.52, where A is the length of the tumor and B is the width of the tumor.

[4] = system: 4T1 cells / 4T1^luc+ cells; assay: Effects on tumor self-seeding; assay type: in vivo, BALB/c mice; conditions: 50 mg/kg orally once daily
Description: Unlabeled parental 4T1 cells were implanted into a mammary gland of 6 to 8-week old female BALB/c mice (1×10^5 cells in 100 μL PBS/mouse). After 14 days of tumor cell implantation, a single dose of 50 mg/kg body weight of a test compound or vehicle (PBS) was administered orally once daily for 2 days. Compound 56 was tested in this assay. Sunitinib (Sutent®) was used as a reference compound. Then 4T1^luc+ cells (1×10^5 cells in 100 μL PBS/mouse) were injected into the circulatory system of the mice by intracardiac injection. The mice were then administered orally with a single dose of 50 mg/kg body weight of a test compound or vehicle (PBS) once daily for 2 days.
Bioluminescent data were collected in a manner similar to that described in Example 189 above.

T1 sequence (P35916 25-1363): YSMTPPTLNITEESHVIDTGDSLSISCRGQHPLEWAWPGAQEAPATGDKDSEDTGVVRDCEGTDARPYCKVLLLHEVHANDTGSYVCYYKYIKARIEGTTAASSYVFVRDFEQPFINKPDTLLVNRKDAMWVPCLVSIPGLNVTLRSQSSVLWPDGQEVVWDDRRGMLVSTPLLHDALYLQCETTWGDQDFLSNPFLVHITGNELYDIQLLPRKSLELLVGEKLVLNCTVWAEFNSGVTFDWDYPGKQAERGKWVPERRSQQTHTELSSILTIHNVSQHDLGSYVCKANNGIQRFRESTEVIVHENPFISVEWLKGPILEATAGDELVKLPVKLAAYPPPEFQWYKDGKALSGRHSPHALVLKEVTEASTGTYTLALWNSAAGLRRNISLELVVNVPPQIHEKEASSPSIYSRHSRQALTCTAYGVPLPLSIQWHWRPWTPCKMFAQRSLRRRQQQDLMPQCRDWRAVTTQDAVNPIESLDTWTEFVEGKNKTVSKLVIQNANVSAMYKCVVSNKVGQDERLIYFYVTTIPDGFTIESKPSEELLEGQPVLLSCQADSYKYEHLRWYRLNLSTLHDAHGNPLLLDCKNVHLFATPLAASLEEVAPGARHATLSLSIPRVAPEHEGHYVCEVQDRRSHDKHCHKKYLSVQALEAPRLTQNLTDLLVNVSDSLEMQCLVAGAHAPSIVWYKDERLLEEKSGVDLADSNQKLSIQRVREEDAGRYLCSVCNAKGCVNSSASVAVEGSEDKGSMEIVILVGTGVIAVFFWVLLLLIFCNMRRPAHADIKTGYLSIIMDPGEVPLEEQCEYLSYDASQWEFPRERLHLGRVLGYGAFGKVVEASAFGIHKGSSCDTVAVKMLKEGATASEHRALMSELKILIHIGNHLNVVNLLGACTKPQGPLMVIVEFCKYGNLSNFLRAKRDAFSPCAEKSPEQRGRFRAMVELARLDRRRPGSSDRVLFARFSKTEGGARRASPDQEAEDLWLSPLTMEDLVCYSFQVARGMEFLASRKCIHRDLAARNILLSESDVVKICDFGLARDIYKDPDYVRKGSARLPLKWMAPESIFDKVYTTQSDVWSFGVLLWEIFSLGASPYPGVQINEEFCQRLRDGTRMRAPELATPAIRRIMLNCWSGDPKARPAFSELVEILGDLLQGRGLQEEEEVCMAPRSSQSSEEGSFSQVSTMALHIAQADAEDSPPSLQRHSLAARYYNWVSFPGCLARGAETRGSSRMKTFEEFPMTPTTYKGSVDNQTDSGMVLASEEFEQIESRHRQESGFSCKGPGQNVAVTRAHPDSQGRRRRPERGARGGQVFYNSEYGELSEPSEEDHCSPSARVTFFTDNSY

Row | Compound | inhibition at 1 µM (VEGF receptor 3) [%] | inhibition of spontaneous metastasis compared with Sorafenib and sunitinib (4T1^LUC+ cells [1]) | luminescent signal intensity (metastatic tumor burden) (4T1^LUC+ cells [1]) | overall survival life span (4T1^LUC+ cells [2]) | luminescent signal intensity after tumor resection (tumor recurrence) (4T1^LUC+ cells [2]; day 35 after tumor resection) | tumor growth inhibition (tumor volume) ([3]; 50 mg/kg intraperitoneally once daily from day 14 after implantation, FIG. 1) | survival rate ([3]; 50 mg/kg intraperitoneally once daily, compared with Sorafenib-treated mice) | tumor recurrence reduction compared with sunitinib (4T1^LUC+ cells [2]; day 35 after tumor resection) | ability in inhibiting tumor self-seeding compared with Sutent [4] | bioluminescence from the thoracic cavity ([4]; day 7 post the second 2-day drug treatment, compared with vehicle group, FIGS. 5A and 5B) | bioluminescence from the abdominal cavity compared with Sutent-treated group ([4]; day 14 post the second 2-day drug treatment) | bioluminescence from the abdominal cavity ([4]; day 14 post the second 2-day drug treatment, compared with vehicle group)
1 | COC(=O)c1ccc2c(c1)nc(-c1ccc3cn(CCC(c4ccccc4)c4ccccc4)nc3c1)n2CCC1=CCCCC1 [Compound 2] | ~65 | comparable or superior to the commercial drugs | significant lower luminescent signal intensity as compared with the vehicle group | increased the overall survival life span of the treated mice as compared with those in the vehicle group | lower luminescent signal intensity as compared with the corresponding group without continuous treatment |  |  |  |  |  |  | 
2 | CCCCc1nc2cccc(-c3nc4cc(C(=O)OC)ccc4n3CC(C)C)c2n1CCCC [Compound 56] |  | comparable or superior to the commercial drugs | did not exhibit any detectable luminescent signal | increased the overall survival life span of the treated mice as compared with those in the vehicle group | lower luminescent signal intensity as compared with the corresponding group without continuous treatment | inhibited tumor growth almost as effectively as Sutent and Sorafenib | higher survival rate than those treated with Sorafenib | reduced tumor recurrence to a degree comparable to that of sunitinib | comparable or even superior ability in inhibiting tumor self-seeding to that of Sutent | much weaker bioluminescence from the thoracic cavity | weaker bioluminescence form the abdominal cavity | much weaker bioluminescence form the abdominal cavity
3 | CCCCc1nc2cccc(-c3nc4cc(C(=O)O)ccc4n3CC(C)C)c2n1CCCC [Compound 91] |  | comparable or superior to the commercial drugs | significant lower luminescent signal intensity as compared with the vehicle group | increased the overall survival life span of the treated mice as compared with those in the vehicle group | lower luminescent signal intensity as compared with the corresponding group without continuous treatment |  |  |  |  |  |  | 
